The values below come from patent publication US11447494B2, “Tricyclic amine compounds as CDK2 inhibitors” (Incyte Corporation, priority 2019, dated 2022).

SMILES strings stand for the structures.

The test system of experiment [1] is CCNE1 amplified COV318 cells. The experiment is described as follows: Cell cycle analysis by FACS in COV318 cells after p16 or control siRNA. To be noted: 100 nM, 16 hours. Format: cell-based, human. The protocol:
To confirm the role of p16 in CDK2-sensitivity of CCNE-amplified cells, COV318 cells were treated with control or p16-specific siRNA.
(§1) Bulk DNA was stained with DAPI. Compound-treated and DMSO treated control cells were acquired with CytoFlex (Beckman Coulter) and were analyzed using the FlowJo software. For cell cycle analysis of cells with siRNA knockdown, 72 hours after siRNA transfection, cells exposed to […] for 3 hours before detection of Click-iT Alexa Fluor® 647 azide kit.
In general terms: In flow cytometry, cells or beads pass a laser one at a time.

The target in another experiment is CDK2/Cyclin E1 (Homo sapiens (Human), UniProt P24941). Kind of experiment: CDK2/Cyclin E1 HTRF enzyme activity assay. To be noted: 1 mM ATP. The class given is biochemical. The protocol: CDK2/Cyclin E1 enzyme activity assays utilize full-length human CDK2 co-expressed as N-terminal GST-tagged protein with FLAG-Cyclin E1 in a baculovirus expression system (Carna Product Number 04-165). Assays are conducted in white 384-well polystyrene plates in a final reaction volume of 8 μL. CDK2/Cyclin E1 (0.25 nM) is incubated with compounds (40 nL serially diluted in DMSO) in the presence of ATP (50 μM or 1 mM) and 50 nM ULight™-labeled eIF4E-binding protein 1 (THR37/46) peptide (PerkinElmer) in assay buffer (containing 50 mM HEPES pH 7.5, 1 mM EGTA, 10 mM MgCl2, 2 mM DTT, 0.05 mg/mL BSA, and 0.01% Tween 20) for 60 minutes at room temperature. The reactions are stopped by the addition of EDTA and Europium-labeled anti-phospho-4E-BP1 antibody (PerkinElmer), for a final concentration of 15 mM and 1.5 nM, respectively. HTRF signals are read after 1 hour at room temperature on a PHERAstar FS plate reader (BMG Labtech). Data is analyzed with IDBS XLFit and GraphPad Prism 5.0 software using a three or four parameter dose response curve to determine IC50 for each compound.
In general terms: Time-resolved FRET reads energy transfer from a long-lived donor to a nearby acceptor.

Experiment [2] concerns CCNE1-non-amplified cell lines (COV504, OV56, Igrov1). The experiment is described as follows: Cell cycle analysis by FACS in CCNE1-non-amplified cell lines. The class given is cell-based, human. The protocol:
(§2) The effect of CDK4/6-inhibition in CCNE1-amplified versus CCNE1-non-amplified cell lines was evaluated.
(§3) A similar experiment was performed in a larger set of CCNE1-amplified cell lines (COV318 and OVCAR3) and CCNE1-non-amplified cell lines (COV504, OV56, and Igrov1) (FIG. 6).
as §1

Experiment [3] deals with CCNE1-amplified cell lines (COV318, OVCAR3). Kind of experiment: Cell cycle analysis by FACS in CCNE1-amplified cell lines. The class given is cell-based, human. The protocol: as §2, §3, §1
Experiment [4] has as its system Rb phosphorylation at S780 in CCNE1-non-amplified cell lines (COV504 and OV56). The experiment is described as follows: Western blot of Rb phosphorylation at S780 in CCNE1-non-amplified cell lines. To be noted: 1 or 15 hours, various doses. The class given is cell-based, human. The protocol: The effect of CDK4/6-inhibition on Rb phosphorylation at S780 in CCNE1-amplified versus CCNE1-non-amplified cell lines was evaluated. […] One or 15 hours after treatment, the cells were harvested and total protein was extracted and analyzed by western blot (FIG. 8).
Whole cell extracts were prepared using RIPA buffer (Thermo Scientific, 89900) with a Halt Protease and Phosphatase Inhibitor Cocktail (Thermo Scientific, 78440). Protein concentration was quantified with a BCA Protein Assay Kit (Thermo Scientific, 23225) and […] of protein lysates were loaded for SDS-PAGE using precast gradient gels (Bio-Rad, Hercules, No. 456-1094). Samples were diluted in 5× Laemmli buffer (300 mM Tris-HCl pH 6.8, 10% SDS (w/v), 5% 2-mercaptoethanol, 25% glycerol (v/v), 0.1% bromophenol blue w/v) and boiled for 5 minutes. […] of proteins were separated by 8-15% SDS-PAGE and transferred onto polyvinylidene fluoride (PVDF) membranes. Unspecific binding sites on the PVDF membranes were blocked with 5% non-fat milk in TBST (20 mM Tris-HCl, pH 7.6, 137 mM NaCl, 1% Tween-20). […] Images were captured by Luminescence/Fluorescence Imaging System Odyssey CLx Imager (LI-COR).
(In general: In western blotting, separated proteins are transferred to a membrane and probed.)

Consider `C[C@@]1(O)CCC[C@H]1n1c(=O)ccc2cnc(NC3CCN(S(C)(=O)=O)CC3)nc21` [Compound A, 8-((1R,2R)-2-hydroxy-2-methylcyclopentyl)-2-((1-(methylsulfonyl)piperidin-4-yl)amino)pyrido[2,3-d]pyrimidin-7(8H)-one], for which the “percentage of S phase cells” value in experiment [1] (control siRNA-treated cells) was “significantly decreased”; in experiment [1] (p16 knocked down cells, vs DMSO) it was “not significantly decreased”.
Take `CNS(=O)(=O)c1ccc(Nc2ncc3c(n2)-c2c(nc(C)n2C(C)C)CC3)cc1` [Example 1, 4-((1-Isopropyl-2-methyl-4,5-dihydro-1H-imidazo[4,5-h]quinazolin-8-yl)amino)-N-methylbenzenesulfonamide]: the IC50 against CDK2/Cyclin E1 was not above 50 nM.
Still for that read-out and setting: as for `Cc1nc2c(n1C)-c1nc(Nc3ccc(S(=O)(=O)N(C)C)cc3)ncc1CC2` [Example 2, 4-((1,2-Dimethyl-4,5-dihydro-1H-imidazo[4,5-h]quinazolin-8-yl)amino)-N,N-dimethylbenzenesulfonamide], the figure is not above 50 nM; as for `Cc1nc2c(n1C)-c1nc(Nc3ccc(S(C)(=O)=O)cc3)ncc1CC2` [Example 3, 1,2-Dimethyl-N-(4-(methylsulfonyl)phenyl)-4,5-dihydro-1H-imidazo[4,5-h]quinazolin-8-amine], not above 50 nM.
`CNS(=O)(=O)c1ccc(Nc2ncc3c(n2)-c2c(nc(C)n2C)CC3)cc1` [Example 4, 4-((1,2-Dimethyl-4,5-dihydro-1H-imidazo[4,5-h]quinazolin-8-yl)amino)-N-methylbenzenesulfonamide] yielded a half-inhibitory concentration (IC50) at CDK2/Cyclin E1 not above 50 nM.
For `CNS(=O)(=O)c1ccc(Nc2ncc3c(n2)-c2c(nc(C)n2C)CC3)c(F)c1` [Example 5, 4-((1,2-Dimethyl-4,5-dihydro-1H-imidazo[4,5-h]quinazolin-8-yl)amino)-3-fluoro-N-methylbenzenesulfonamide], the IC50 at CDK2/Cyclin E1 is not above 50 nM.
Same read-out and setting: as for `Cc1nc2c(n1C)-c1nc(Nc3ccc(S(=O)(=O)NC(C)C)cc3)ncc1CC2` [Example 6, 4-((1,2-Dimethyl-4,5-dihydro-1H-imidazo[4,5-h]quinazolin-8-yl)amino)-N-isopropylbenzenesulfonamide], the figure is not above 50 nM; as for `Cc1nc2c(n1C)-c1nc(Nc3ccc(S(=O)(=O)NCCO)cc3)ncc1CC2` [Example 7, 4-((1,2-Dimethyl-4,5-dihydro-1H-imidazo[4,5-h]quinazolin-8-yl)amino)-N-(2-hydroxyethyl)benzenesulfonamide], not above 50 nM.
Take `NS(=O)(=O)c1ccc(Nc2ncc3c(n2)-n2ccnc2CC3)cc1` [Example 8, 4-((5,6-Dihydroimidazo[1′,2′:1,6]pyrido[2,3-d]pyrimidin-2-yl)amino)benzenesulfonamide]: the IC50 against CDK2/Cyclin E1 was not above 50 nM.
At CDK2/Cyclin E1, `NS(=O)(=O)c1ccc(Nc2ncc3c(n2)-n2ccnc2CO3)cc1` [Example 9, 4-((6H-Imidazo[1,2-d]pyrimido[5,4-b][1,4]oxazin-2-yl)amino)benzenesulfonamide] registered an IC50 not above 50 nM.
On to `Cc1nc2c(n1C)-c1nc(Nc3ccc(S(=O)(=O)NCCN(C)C)cc3F)ncc1CC2` [Example 10, 4-((1,2-Dimethyl-4,5-dihydro-1H-imidazo[4,5-h]quinazolin-8-yl)amino)-N-(2-(dimethylamino)ethyl)-3-fluorobenzenesulfonamide], for which the IC50 against CDK2/Cyclin E1 was not above 50 nM.
Still for that read-out and setting: the figure for `Cc1nc2c(n1C)-c1nc(Nc3ccc(S(=O)(=O)NCCCN(C)C)cc3F)ncc1CC2` [Example 11, 4-((1,2-Dimethyl-4,5-dihydro-1H-imidazo[4,5-h]quinazolin-8-yl)amino)-N-(3-(dimethylamino)propyl)-3-fluorobenzenesulfonamide] is not above 50 nM; for `Cc1nc2c(n1C)-c1nc(Nc3ccc(S(=O)(=O)NCC4CCOC4)cc3F)ncc1CC2` (stereo not shown) [Example 12, 4-((1,2-Dimethyl-4,5-dihydro-1H-imidazo[4,5-h]quinazolin-8-yl)amino)-3-fluoro-N-((tetrahydrofuran-3-yl)methyl)benzenesulfonamide] it is not above 50 nM.
As for `CC(=O)c1c(C)c2cnc(Nc3ccc(N4CCNCC4)cn3)nc2n(C2CCCC2)c1=O` [palbociclib], the “percentage of cells at the S phase, compared to DMSO” value is “decreased in CCNE1-non-amplified cell lines in a dose-dependent fashion” in experiment [2] (COV504, OV56, Igrov1, 16 hours after treatment); “not significantly different” in experiment [3] (COV318 and OVCAR3, 16 hours after treatment). The “inhibition of proliferation (cell cycle analysis)” value is recorded as “dose-dependent inhibition of the proliferation” in experiment [2] (COV504 cells, 16 hours, increasing concentrations) and “not in CCNE1-amplified cells” in experiment [3] (OVCAR3 cells, 16 hours, increasing concentrations). Besides, the “Rb phosphorylation at S780” value in experiment [4] is “blocked Rb phosphorylation at S780”.

What is called IC50 is the concentration needed to halve the response being measured. High values mean weaker potency in that assay, low ones greater potency in that assay.
